Laboratory results: patent US20250346629A1, “USE OF D-ENANTIOMERIC PEPTIDE LIGANDS OF MONOMERIC ALPHA-SYNUCLEIN FOR THE THERAPY OF VARIOUS SYNUCLEINOPATHIES” (PRIAVOID GMBH, priority 2021, published 2025)
Square brackets hold non-standard residues; d marks the D form. Peptide text beside a SMILES is read from it.

What was measured:
[1] = Solubility of D-peptides in buffer (UV-vis of supernatant after centrifugation); assay type: physicochemical; details: different buffers including PBS, aqueous buffer; different buffer conditions including PBS pH 7.4; 1 h at 37° C., 20 800×g centrifugation; read-out: starting concentration up to which the compound remained completely in the supernatant
Source text: D-enantiomeric peptides with C-terminal amidation were acquired from CASLO (CASLO, DK) as a lyophilized chloride salt powder having a purity of >95%.

[2] = target: α-syn (Homo sapiens, UniProt P37840); experiment: Kinetic single-cycle SPR assay with α-syn and immobilized peptides, CMD200M (FIG. 11); assay type: binding; details: kinetic 1:1 interaction model
Description: The measurements were carried out using an 8K-Biacore device (Cytiva, USA). The interactions were measured using single-cycle kinetics experiments. In all assays, the peptide compounds were immobilized as ligands on the sensor surface and recombinant α-syn was injected into the flow as the analyte. […] Surface quenching was carried out with 1 M ethanolamine at pH 8.3. Unless stated otherwise, the kinetic experiments were carried out at a flow rate of 30 μl/min in PBS, pH 7.4. The surface was regenerated between cycles using 30 s injections of 2 M Gua-HCl at 30 μl/min. Data evaluation was performed using the evaluation software Biacore insight v3.0 (Cytiva, USA).
The experiment was carried out as an individual measurement.

[3] = target: monomeric α-syn (Homo sapiens, UniProt P37840); experiment: Size-exclusion chromatography of monomeric α-syn after incubation with SVD-1a (FIG. 13); assay type: biochemical; details: 10 μM α-syn monomer with 0-80 μM SVD-1a, 2 h, 37° C., 300 rpm
Description: 10 μM α-syn monomer were incubated with 0, 5, 10, 20, 40 and 80 μM SVD-1a in PBS, pH 7.4, for 2 h at 37° C. and 300 rpm. The SEC was carried out with a Bio SEC-3 column (150 Å, Agilent, USA) at 1 ml min^−1 and PBS, pH 7.4, as mobile phase. The samples were centrifuged for 5 minutes at 20 800×g before the supernatant was injected. The protein was detected at A214. α-syn monomer eluted after 6.91 min retention time. The peak area of the α-syn monomer was integrated for the 10 μM α-syn sample and set to 100%. The concentration of monomeric α-syn was not reduced in the presence of increasing concentrations of SVD-1a. SVD-1a itself was only eluted during the purification and regeneration procedure of the SEC, which is highly probably attributable to its high net positive charge.

[4] = target: α-syn PFF oligomers (Homo sapiens, UniProt P37840); experiment: Decomposition of PFF oligomers (HPLC-SEC, DLS, AFM; FIG. 17); assay type: biochemical; details: 100 nM monomer-equivalent PFF oligomers, 400 and 1600 nM SVD-1a, 3 days, 37° C., PBS pH 7.4
Description: PFF oligomers were produced as follows. Firstly, insoluble PFF was produced by incubating 300 μM of recombinant α-syn in a LoBind reaction tube (Eppendorf GmbH, GE) with a borosilicate glass bead (d=3.0 mm; Hilgenberg, DE) in 20 mM NaPi, pH 7.0, 150 […] for one week at 37° C. The insoluble PFF was harvested by ultracentrifugation at 100 000×g for 30 min at 4° C., and the pellet was washed several times with 20 mM NaPi, PH 7.0, 150 mM NaCl. The monomer equivalent concentration was determined by measuring the α-syn concentration in the supernatant after the first centrifugation and subtracting this from the start concentration for the fibrillation. The insoluble PFF was resuspended in buffer and frozen at −80° C. with liquid N2. […]
The elimination of PFF oligomers was assessed by SEC and the subsequent detection of the PFF oligomer and monomer peaks. […] The proteins were detected at A214.
The measurements were carried out using a SpectroSize 300 131 (XtalConcepts, GE) device and a sample volume of 1 ml in a sealed quartz cuvette (Hellma Group, GE). […] Data points were recorded every 30 seconds for time-dependent DLS measurements. […]
(A) HPLC-SEC measurement samples were injected onto a Bio SEC-3 column (300 Å, Agilent, USA). The PFF oligomers eluted after approximately 5 min, while the α-syn monomer was detected after approximately 8.6 min. […]

solubility at 1 h [1]: ≥ 1000 µM
Kd ([2]; PBS 7.4, individual measurement): 100 pM
koff ([2]; PBS 7.4, as printed for SVD-1a): 3.13e-05 s⁻¹
concentration of monomeric α-syn (SEC peak area) [3]: not reduced
SMILES: CC[C@@H](C)[C@@H](NC(=O)[C@@H](Cc1c[nH]cn1)NC(=O)[C@@H](CCC(=O)O)NC(=O)[C@@H](CCC(N)=O)NC(=O)[C@@H](Cc1c[nH]c2ccccc12)NC(=O)[C@@H](Cc1ccc(O)cc1)NC(=O)[C@H](NC(=O)[C@@H](CCC(=O)O)NC(=O)[C@@H](Cc1c[nH]cn1)NC(=O)[C@H](NC(=O)[C@H]1CCCN1C(=O)[C@@H](CC(C)C)NC(=O)[C@H](N)CCCNC(=N)N)[C@H](C)O)[C@H](C)O)C(=O)N[C@H](Cc1c[nH]c2ccccc12)C(=O)N[C@H](Cc1c[nH]cn1)C(=O)N[C@H](C)C(=O)N[C@H](CCCNC(=N)N)C(=O)N[C@H](CCCNC(=N)N)C(=O)N[C@H](CCCNC(=N)N)C(=O)N[C@H](CCCNC(=N)N)C(=O)N[C@H](CCCNC(=N)N)C(N)=O [SVD-1a, rlpthetywqehiwharrrrr] (H-[dR][dL][dP][dT][dH][dE][dT][dY][dW][dQ][dE][dH][dI][dW][dH][dA][dR][dR][dR][dR][dR]-NH2)
effect on PFF oligomers [4]: decomposes the PFF oligomers into α-syn monomers
